Series [1] can be described thus: PAMPA-BBB permeability assay. Type of series: in vitro ADME, porcine. Conditions: for in vitro BBB permeability: PAMPA-BBB, in words; for Papp at 4 h, 100 µM: pig, PAMPA, read-out: logPe PAMPA-BBB (n = 9) (converted). The procedure: Kratom extracts were tested for the membrane permeability of their constituents in a PAMPA-BBB assay. […] The blood–brain barrier-specific assay was tested and optimized for natural products by Könczöl et al.; this PAMPA-BBB assay was therefore chosen to determine the BBB permeability of the kratom constituents. […] It should be noted, however, that among the minor components that were not the focus of this study, there may be BBB+ compounds with significant biological activity.
All four isolated kratom alkaloids were also tested in the PAMPA-BBB model. As it can be seen in Table 1, all the investigated compounds had logPe values of between −4.42 and −4.77, which were greater than −6.0; according to Könczöl et al., this value effectively discriminates between compounds with good (BBB+) and poor (BBB−) blood–brain barrier permeability.
PAMPA-BBB was used to determine the effective permeability (Pe) for some extracts and the isolated compounds. Stock solutions (10 mM in DMSO) were diluted with the buffer (pH 7.4) to obtain the donor solutions (composition: 594.0 μL buffer + 6.0 μL stock solution). The buffer was prepared as follows: one PBS (phosphate-buffered saline, pH 7.4; Sigma Aldrich, Budapest, Hungary) tablet dissolved in 200.0 mL distilled water. Donor solutions were filtered through Phenex-RC 15 mm, 0.2 μm syringe filters (Gen-Lab Ltd., Budapest, Hungary).
For PAMPA-BBB, 5 μL of porcine polar brain lipid extract (PBLE) solution (16.0 mg of PBLE + 8.0 mg of cholesterol dissolved in 600.0 μL of n-dodecane) was applied to each well of 96-well polycarbonate-based filter donor plates (top plate) (Multiscreen™-IP, MAIPN4510, pore size 0.45 μm; Merck). The 96-well PTFE acceptor plates (bottom plates) (Multiscreen Acceptor Plate, MSSACCEPTOR; Merck) were filled with 300.0 μL of buffer solution (0.01 M PBS buffer, pH 7.4). The donor plate was placed upon the acceptor plate, and both plates were incubated together at 37 °C for 4 h in a Heidolph Titramax 1000 Vibrating platform shaker (Heidolph, Schwabach, Germany).
After incubation, sandwich plates were separated, and the concentrations of each compound in the starting donor solution and in the acceptor and donor wells were determined in triplicate by the chromatographic peak areas derived from the UHPLC-UV method described above. The UV spectra and chromatograms were recorded at 200–400 nm, and the chromatograms acquired at the UV absorption maxima of each compound were used for data evaluation. The effective permeability and the membrane retention in PAMPA-BBB were calculated by Equations (1) and (2), respectively:(1) Pe=−2.303/A(t−τSS)·(VA·VD/VA+VD)·lg[1−(VA+VD/(1−MR)·VD)×(CA(t)/CD(0))] where Pe is the effective permeability coefficient (cm/s), A is the filter area (0.24 cm^2), VD and VA are the volumes in the donor (0.15 cm^3) and acceptor phases (0.30 cm^3), t is the incubation time (s), τSS is the time (s) to reach the steady state (240 s), CD(t) is the concentration (mol/cm^3) of the compound in the donor phase at time t, CD(0) is the concentration (mol/cm^3) of the compound in the donor phase at time 0, and MR is the estimated membrane retention factor (the estimated mole fraction of solute lost to the membrane), defined as (2) MR=1−CD(t)/CD(0)−VA/VDCA(t)/CD(0)
All experiments were performed in triplicate on three consecutive days (n = 9); caffeine standard was used as the positive control, with rutin as the negative control.
(In general: PAMPA measures passive passage across an artificial lipid membrane.)

A short description of series [2]: ACE complex stability, β-CD. Type of series: physicochemical. Conditions: 30 mM phosphate buffer pH 7.4, 25 °C, 15 kV, 215 nm. The procedure:
(§1) To investigate the CD complexation behavior of the four kratom alkaloids, we aimed to develop an ACE method for a systematic comparative study. […] To ensure sufficient buffer capacity and to avoid excessive current and Joule heat generation, the buffer concentration was set to 30 mM, and the applied voltage was 15 kV.
(§2) The ACE experiments were performed by using Agilent 7100 and HP^3DCE instruments (Agilent Technologies, Waldbronn, Germany). Untreated fused silica capillaries (total length of 48.5 cm, effective length of 40 cm, inner diameter of 50 μm) were purchased from Agilent Technologies. The new capillaries were conditioned with a 1 M NaOH wash for 1 h, followed by a 30 min wash each with 0.1 M NaOH and purified water. Prior to all runs, the capillary was preconditioned by rinsing with background electrolyte for 3 min. During the measurements, 30 mM phosphate buffer at pH 7.4 (30 mM Na2HPO4-NaOH) was used. The background electrolyte contained CDs at various concentrations. Stock solutions of the studied kratom alkaloids (mitragynine, paynantheine, speciogynine, speciociliatine) were prepared separately in methanol (1 mg/mL), and, right before the measurements, appropriate dilutions with purified water were used to prepare the sample solutions, applying 0.1% DMSO as the electroosmotic flow (EOF) marker. The samples were injected hydrodynamically at 40 mbar for 3 s. The positive polarity voltage was set to 15 kV, and the capillary was set to 25 °C. The electropherograms were recorded at four wavelengths (200 nm, 210 nm, 215 nm, and 220 nm), and the data were evaluated at 215 nm. In each case, three parallel measurements were performed. The measurements were evaluated using Origin and CEval software (v. 0.6i3).
(§3) In order to determine the complex stability constants that characterized the strength of the complexes, the first step was to determine the effective mobility of the analyte at specific CD concentrations. Triangular peaks caused by electromigration dispersion are often observed in ACE measurements.
(§4) Assuming a 1:1 complexation ratio and that the equilibrium CD concentration is almost equal to the total CD concentration, a relationship between the effective mobility relative to the EOF and the complex stability constant can be described by Function (4) (4) μeff=μA+μACDKstabCD/1+KstabCD where µeff is the effective mobility of the analyte, µA and µACD are the free and complexed analyte mobilities, [CD] is the concentration of the selector, and Kstab is the complex stability constant.
(§5) In order to calculate the exact, apparent, averaged complex stability constant values, viscosity correction and ionic strength correction were used.

A short description of series [3]: ACE complex stability, HP-β-CD. Format: physicochemical. The conditions noted are these: hydroxypropylated-β-CD DS~4.5, 30 mM phosphate buffer pH 7.4, 25 °C. The procedure: as §1, §2
(§6) In order to determine the complex stability constants that characterized the strength of the complexes, the first step was to determine the effective mobility of the analyte at specific CD concentrations. Triangular peaks caused by electromigration dispersion are often observed in ACE measurements. […]

Series [4] is described as follows: ACE complex stability, HP-γ-CD. Type of series: physicochemical. The conditions noted are these: hydroxypropylated-γ-CD DS~3, 30 mM phosphate buffer pH 7.4, 25 °C. The method, then:
as §1, §2, §6

Series [5] is described as follows: ACE complex stability, CM-β-CD. The conditions noted are these: carboxymethylated-β-CD DS~3, 30 mM phosphate buffer pH 7.4, 25 °C. Format: physicochemical. The procedure: as §1, §2, §3, §4, §5
Series [6] in a line: ACE complex stability, CM-γ-CD. Format: physicochemical. Conditions: carboxymethylated-γ-CD DS~4, 30 mM phosphate buffer pH 7.4, 25 °C. The procedure:
as §1, §2, §3, §4, §5

Series [7] can be described thus: ACE complex stability, Succ-β-CD. Type of series: physicochemical. Conditions: succinyl-β-CD DS~6, 30 mM phosphate buffer pH 7.4, 25 °C. The procedure: as §1, §2, §3, §4, §5
The nature of series [8]: ACE complex stability, SBE-β-CD DS~4. Format: physicochemical. Conditions: sulfobutyl-ether-β-CD DS~4, 30 mM phosphate buffer pH 7.4, 25 °C. The method, then: as §1, §2, §3, §4, §5
[9] abbreviates: pH 7.4, 37 °C, 4 h, n = 9, Pe in cm/s.

The record followed here is PMC11597089, “Kratom Alkaloids: A Blood–Brain Barrier Specific Membrane Permeability Assay-Guided Isolation and Cyclodextrin Complexation Study” (Molecules, 2024).

As to `C=C[C@H]1CN2CCc3c([nH]c4cccc(OC)c34)[C@@H]2C[C@@H]1/C(=C\OC)C(=O)OC` [Paynantheine, paynantheine], in series [1], the “in vitro BBB permeability” value is on record as “excellent”. The Papp at 4 h, 100 µM in series [1] (setting [9]) is 24.5 ×10⁻⁶ cm/s. Also, the “complex stability constant (Kstab) with β-CD” value in series [2] turned out to be 145 ± 15 M⁻¹. For the same compound, in series [3], the “complex stability constant (Kstab) with HP-β-CD” value was 75 ± 5 M⁻¹. In addition, the “complex stability constant (Kstab) with HP-γ-CD” value in series [4] was 325 ± 50 M⁻¹. Besides, the “complex stability constant (Kstab) with CM-β-CD” value in series [5] turned out to be 185 ± 15 M⁻¹. Moreover, the “complex stability constant (Kstab) with CM-γ-CD” value in series [6] worked out at 180 ± 20 M⁻¹. Moreover, in series [7], the “complex stability constant (Kstab) with Succ-β-CD” value amounted to 360 ± 30 M⁻¹. In series [8], the “complex stability constant (Kstab) with SBE-β-CD DS~4” value worked out at 830 ± 50 M⁻¹.
Turning to `CC[C@@H]1CN2CCc3c([nH]c4cccc(OC)c34)[C@H]2C[C@@H]1/C(=C\OC)C(=O)OC` [Speciociliatine, speciociliatine], the “in vitro BBB permeability” value in series [1] was “excellent”. The Papp at 4 h, 100 µM in series [1] (setting [9]) is 26.3 ×10⁻⁶ cm/s. In addition, the “complex stability constant (Kstab) with β-CD” value in series [2] was 35 ± 3 M⁻¹. The “complex stability constant (Kstab) with HP-β-CD” value in series [3] stood at 30 ± 3 M⁻¹. Also, the “complex stability constant (Kstab) with HP-γ-CD” value in series [4] is 220 ± 25 M⁻¹. Also, the “complex stability constant (Kstab) with CM-β-CD” value in series [5] was 230 ± 20 M⁻¹. Besides, in series [6], the “complex stability constant (Kstab) with CM-γ-CD” value is 120 ± 12 M⁻¹. In addition, the “complex stability constant (Kstab) with Succ-β-CD” value in series [7] was 470 ± 35 M⁻¹. Besides, in series [8], the “complex stability constant (Kstab) with SBE-β-CD DS~4” value was 670 ± 60 M⁻¹.
As for `CC[C@H]1CN2CCc3c([nH]c4cccc(OC)c34)[C@@H]2C[C@@H]1/C(=C\OC)C(=O)OC` [Speciogynine, speciogynine], the “in vitro BBB permeability” value in series [1] was “excellent”. Besides, in series [1] (setting [9]), the Papp at 4 h, 100 µM was 17 ×10⁻⁶ cm/s. Further, the “complex stability constant (Kstab) with β-CD” value in series [2] is 65 ± 9 M⁻¹. Besides, the “complex stability constant (Kstab) with CM-β-CD” value in series [5] was 170 ± 15 M⁻¹. Also, the “complex stability constant (Kstab) with CM-γ-CD” value in series [6] was found to be 140 ± 12 M⁻¹. Moreover, the “complex stability constant (Kstab) with Succ-β-CD” value in series [7] is 840 ± 80 M⁻¹. In addition, the “complex stability constant (Kstab) with SBE-β-CD DS~4” value in series [8] is 610 ± 60 M⁻¹.
Consider mitragynine, for which the “in vitro BBB permeability” value in series [1] is given as “excellent”. For the same compound, in series [1] (setting [9]), the “logPe PAMPA-BBB (n = 9)” value is on record as −4.42 ± 0.61. In series [2], the “complex stability constant (Kstab) with β-CD” value is 145 ± 20 M⁻¹. Moreover, the “complex stability constant (Kstab) with HP-β-CD” value in series [3] was found to be 35 ± 2 M⁻¹. Further, in series [4], the “complex stability constant (Kstab) with HP-γ-CD” value was 230 ± 35 M⁻¹. In series [5], the “complex stability constant (Kstab) with CM-β-CD” value was 215 ± 20 M⁻¹. For the same compound, in series [6], the “complex stability constant (Kstab) with CM-γ-CD” value turned out to be 200 ± 10 M⁻¹. Besides, in series [7], the “complex stability constant (Kstab) with Succ-β-CD” value stood at 375 ± 20 M⁻¹. Moreover, in series [8], the “complex stability constant (Kstab) with SBE-β-CD DS~4” value was 550 ± 35 M⁻¹.
